# Data as given in patent US20230087118A1, “IMIDAZO[1,2-a][sequence] DERIVATIVES AND THEIR USE IN THE TREATMENT OF DISEASE” (priority 2019, published 2023).
# Biological target: T1, IRAK4 (Homo sapiens, UniProt Q9NWZ3)
# T1 sequence (Q9NWZ3 1-460): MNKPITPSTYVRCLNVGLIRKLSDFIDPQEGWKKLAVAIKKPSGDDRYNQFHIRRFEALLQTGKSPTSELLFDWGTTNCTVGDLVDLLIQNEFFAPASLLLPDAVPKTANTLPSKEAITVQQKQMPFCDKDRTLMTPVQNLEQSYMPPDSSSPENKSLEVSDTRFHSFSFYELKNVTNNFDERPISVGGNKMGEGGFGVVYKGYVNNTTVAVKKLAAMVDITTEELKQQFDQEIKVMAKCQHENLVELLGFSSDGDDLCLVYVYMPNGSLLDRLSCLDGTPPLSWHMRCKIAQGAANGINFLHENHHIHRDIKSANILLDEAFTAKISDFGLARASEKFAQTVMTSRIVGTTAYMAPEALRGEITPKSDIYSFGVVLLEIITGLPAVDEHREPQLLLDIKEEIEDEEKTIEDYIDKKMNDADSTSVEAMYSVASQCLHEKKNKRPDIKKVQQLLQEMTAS
# Experiment: biochemical
row,Compound,IC50 [nM]
1,"CC12CCC(c3cn4cc(C(=O)Nc5ccn(C(F)F)n5)c(OC5CCC5)cc4n3)(CO1)C2 (stereo not shown) [Example 418, 7-Cyclobutoxy-N-(1-(difluoromethyl)-1H-pyrazol-3-yl)-2-(1-methyl-2-oxabicyclo[2.2.1]heptan-4-yl)imidazo[1,2-a]pyridine-6-carboxamide]",2.1
2,"Cn1nc(NC(=O)c2cn3cc(C45CCC(C)(C4)OC5)nc3cc2OC2CCC2)cc1F (stereo not shown) [Example 419, 7-Cyclobutoxy-N-(5-fluoro-1-methyl-1H-pyrazol-3-yl)-2-(1-methyl-2-oxabicyclo[2.2.1]heptan-4-yl)imidazo[1,2-a]pyridine-6-carboxamide]",3.3
3,"CCn1cccc(NC(=O)c2cn3cc(C45CCC(C)(CC4)OC5)nc3cc2OC2CCC2)c1=O [Example 420, 7-Cyclobutoxy-N-(1-ethyl-2-oxo-1,2-dihydropyridin-3-yl)-2-(1-methyl-2-oxabicyclo[2.2.2]octan-4-yl)imidazo[1,2-a]pyridine-6-carboxamide]",0.3
4,"Cn1cccc(NC(=O)c2cn3cc(C45CCC(C)(CC4)OC5)nc3cc2OC2CCC2)c1=O [Example 421, 7-Cyclobutoxy-N-(1-methyl-2-oxo-1,2-dihydropyridin-3-yl)-2-(1-methyl-2-oxabicyclo[2.2.2]octan-4-yl)imidazo[1,2-a]pyridine-6-carboxamide]",0.2
5,"Cn1cccc(NC(=O)c2cn3cc(C45CCC(C)(C4)OC5)nc3cc2OC2CCC2)c1=O (stereo not shown) [Example 422, 7-Cyclobutoxy-N-(1-methyl-2-oxo-1,2-dihydropyridin-3-yl)-2-(1-methyl-2-oxabicyclo[2.2.1]heptan-4-yl)imidazo[1,2-a]pyridine-6-carboxamide]",0.5
6,"CCOc1nc2nc(C34CCC(C)(CC3)OC4)cn2cc1C(=O)Nc1ccn(C)n1 [Example 423, 7-Ethoxy-N-(1-methyl-1H-pyrazol-3-yl)-2-(1-methyl-2-oxabicyclo[2.2.2]octan-4-yl)imidazo[1,2-a]pyrimidine-6-carboxamide]",5.4
7,"Cn1cccc(NC(=O)c2cn3cc(C45COC(C)(C4)C5)nc3cc2OC2CCC2)c1=O [Example 424, 7-Cyclobutoxy-N-(1-methyl-2-oxo-1,2-dihydropyridin-3-yl)-2-(1-methyl-2-oxabicyclo[2.1.1]hexan-4-yl)imidazo[1,2-a]pyridine-6-carboxamide]",0.7
8,"CC12CCC(c3cn4cc(C(=O)Nc5cnn6cccnc56)c(OC5CCC5)cc4n3)(CO1)C2 (stereo not shown) [Example 425, 7-Cyclobutoxy-2-(1-methyl-2-oxabicyclo[2.2.1]heptan-4-yl)-N-(pyrazolo[1,5-a]pyrimidin-3-yl)imidazo[1,2-a]pyridine-6-carboxamide]",0.4
9,"Cc1cnc2c(NC(=O)c3cn4cc(C56CCC(C)(C5)OC6)nc4cc3OC3CCC3)cnn2c1 (stereo not shown) [Example 426, 7-Cyclobutoxy-2-(1-methyl-2-oxabicyclo[2.2.1]heptan-4-yl)-N-(6-methylpyrazolo[1,5-a]pyrimidin-3-yl)imidazo[1,2-a]pyridine-6-carboxamide]",0.3
10,"CC(C)Oc1nc(C(=O)Nc2ccn(C)n2)cn2cc(C34CCC(C)(CC3)OC4)nc12 [Example 429, 8-Isopropoxy-N-(1-methyl-1H-pyrazol-3-yl)-2-(1-methyl-2-oxabicyclo[2.2.2]octan-4-yl)imidazo[1,2-a]pyrazine-6-carboxamide]",1.8
11,Cc1cnc2c(NC(=O)c3cn4cc(C56COC(C5)C6)nc4nc3OC(C)C)cnn2c1 [Example 432],0.6
12,Cc1cnc2c(NC(=O)c3cn4cc(C56CCC(C5)OC6)nc4nc3OC(C)C)cnn2c1 (stereo not shown) [Example 433],0.6
13,"COc1cccc(NC(=O)c2cn3cc(C4CCOCC4)nc3cc2OCCC2CCOC2)n1 (stereo not shown) [Example 435, N-(6-methoxypyridin-2-yl)-2-(tetrahydro-2H-pyran-4-yl)-7-(2-(tetrahydrofuran-3-yl)ethoxy)imidazo[1,2-a]pyridine-6-carboxamide]",5.1
14,"CCO[C@H]1C[C@@H](Oc2cc3nc(C4CCOCC4)cn3cc2C(=O)Nc2cccc(C(F)F)n2)C1 [Example 436, N-(6-(difluoromethyl)pyridin-2-yl)-7-((1s,3s)-3-ethoxycyclobutoxy)-2-(tetrahydro-2H-pyran-4-yl)imidazo[1,2-a]pyridine-6-carboxamide]",0.8
15,"Cn1ccc(NC(=O)c2cn3cc(C45COC(C)(C4)C5)nc3cc2OC2CCC2)n1 [Example 437, 7-Cyclobutoxy-N-(1-methyl-1H-pyrazol-3-yl)-2-(1-methyl-2-oxabicyclo[2.1.1]hexan-4-yl)imidazo[1,2-a]pyridine-6-carboxamide]",1.7
16,"CC12CC(c3cn4cc(C(=O)Nc5cccn(C(F)F)c5=O)c(OC5CCC5(C)C)cc4n3)(CO1)C2 (stereo not shown) [Example 439, N-(1-(difluoromethyl)-2-oxo-1,2-dihydropyridin-3-yl)-7-(2,2-dimethylcyclobutoxy)-2-(1-methyl-2-oxabicyclo[2.1.1]hexan-4-yl)imidazo[1,2-a]pyridine-6-carboxamide]",2.8
17,"Cn1ccc(NC(=O)c2cn3cc(C45COC(C)(C4)C5)nc3cc2OC2CC(C)(C)C2)n1 [Example 440, 7-(3,3-Dimethylcyclobutoxy)-N-(1-methyl-1H-pyrazol-3-yl)-2-(1-methyl-2-oxabicyclo[2.1.1]hexan-4-yl)imidazo[1,2-a]pyridine-6-carboxamide]",4.3
18,"CC12CC(c3cn4cc(C(=O)Nc5cccn(C(F)F)c5=O)c(OC5CCC5)cc4n3)(CO1)C2 [Example 442, 7-Cyclobutoxy-N-(1-(difluoromethyl)-2-oxo-1,2-dihydropyridin-3-yl)-2-(1-methyl-2-oxabicyclo[2.1.1]hexan-4-yl)imidazo[1,2-a]pyridine-6-carboxamide]",0.2

# Next, values leading:
row,IC50 [nM],Compound
1,0.1,"CC(C)Oc1nc2nc(C34COC(C)(C3)C4)cn2cc1C(=O)Nc1cccc(-c2cnn(C)c2)n1 [Example 413, 7-Isopropoxy-N-(6-(1-methyl-1H-pyrazol-4-yl)pyridin-2-yl)-2-(1-methyl-2-oxabicyclo[2.1.1]hexan-4-yl)imidazo[1,2-a]pyrimidine-6-carboxamide]"
2,3.3,"CC(C)Oc1cc2nc(C34CCC(C)(C3)OC4)cn2cc1C(=O)Nc1ccn(C)n1 (stereo not shown) [Example 414, 7-Isopropoxy-N-(1-methyl-1H-pyrazol-3-yl)-2-(1-methyl-2-oxabicyclo[2.2.1]heptan-4-yl)imidazo[1,2-a]pyridine-6-carboxamide]"
3,8.5,"CC(C)Oc1cc2nc(C34CCC(C3)OC4)cn2cc1C(=O)Nc1ccn(C)n1 (stereo not shown) [Example 415, 2-(2-Oxabicyclo[2.2.1]heptan-4-yl)-7-isopropoxy-N-(1-methyl-1H-pyrazol-3-yl)imidazo[1,2-a]pyridine-6-carboxamide]"
4,0.6,"CC(C)Oc1cc2nc(C34CCC(C3)OC4)cn2cc1C(=O)Nc1cnn2cccnc12 (stereo not shown) [Example 416, 2-(2-Oxabicyclo[2.2.1]heptan-4-yl)-7-isopropoxy-N-(pyrazolo[1,5-a]pyrimidin-3-yl)imidazo[1,2-a]pyridine-6-carboxamide]"
5,0.2,"CC(C)Oc1cc2nc(C34CCC(C)(C3)OC4)cn2cc1C(=O)Nc1cnn2cccnc12 (stereo not shown) [Example 417, 7-Isopropoxy-2-(1-methyl-2-oxabicyclo[2.2.1]heptan-4-yl)-N-(pyrazolo[1,5-a]pyrimidin-3-yl)imidazo[1,2-a]pyridine-6-carboxamide]"
6,0.7,"CC(C)Oc1nc(C(=O)Nc2cccn(C)c2=O)cn2cc(C34CCC(C)(CC3)OC4)nc12 [Example 427, 8-Isopropoxy-N-(1-methyl-2-oxo-1,2-dihydropyridin-3-yl)-2-(1-methyl-2-oxabicyclo[2.2.2]octan-4-yl)imidazo[1,2-a]pyrazine-6-carboxamide]"
7,1.6,"CC(C)Oc1nc(C(=O)Nc2cnn3cccnc23)cn2cc(C34CCC(C)(CC3)OC4)nc12 [Example 428, 8-Isopropoxy-2-(1-methyl-2-oxabicyclo[2.2.2]octan-4-yl)-N-(pyrazolo[1,5-a]pyrimidin-3-yl)imidazo[1,2-a]pyrazine-6-carboxamide]"
8,2.7,"CC(C)Oc1nc2nc(C34COC(C3)C4)cn2cc1C(=O)Nc1cnn2cccnc12 [Example 430, 2-(2-Oxabicyclo[2.1.1]hexan-4-yl)-7-isopropoxy-N-(pyrazolo[1,5-a]pyrimidin-3-yl)imidazo[1,2-a]pyrimidine-6-carboxamide]"
9,0.8,CC(C)Oc1nc2nc(C34CCC(C)(CC3)OC4)cn2cc1C(=O)Nc1cnn2cccnc12 [Example 431]
10,0.5,Cc1cnc2c(NC(=O)c3cn4cc(C56COC(CF)(C5)C6)nc4nc3OC(C)C)cnn2c1 [Example 434]
11,1.5,"CC12CC(c3cn4cc(C(=O)Nc5cccn(C(F)F)c5=O)c(OCCF)cc4n3)(CO1)C2 [Example 438, N-(1-(difluoromethyl)-2-oxo-1,2-dihydropyridin-3-yl)-7-(2-fluoroethoxy)-2-(1-methyl-2-oxabicyclo[2.1.1]hexan-4-yl)imidazo[1,2-a]pyridine-6-carboxamide]"
12,3.4,"CC12CC(c3cn4cc(C(=O)Nc5cccn(C(F)F)c5=O)c(OC5COC5)cc4n3)(CO1)C2 [Example 441, N-(1-(difluoromethyl)-2-oxo-1,2-dihydropyridin-3-yl)-2-(1-methyl-2-oxabicyclo[2.1.1]hexan-4-yl)-7-(oxetan-3-yloxy)imidazo[1,2-a]pyridine-6-carboxamide]"
13,1.7,"CC12CC(c3cn4cc(C(=O)Nc5cccn(C(F)F)c5=O)c(OC5CCOC5)cc4n3)(CO1)C2 (stereo not shown) [Example 443, N-(1-(difluoromethyl)-2-oxo-1,2-dihydropyridin-3-yl)-2-(1-methyl-2-oxabicyclo[2.1.1]hexan-4-yl)-7-((tetrahydrofuran-3-yl)oxy)imidazo[1,2-a]pyridine-6-carboxamide]"
